# Laboratory results published in PubChem BioAssay AID316 (DTP/NCI, 2004).
# “And” between values parts separate entries of the source, which are not always exact repeats. Equal values may be shown once. Toxic doses and inconclusive results are not listed.
# System: P1534 leukemia ip, CD2F1 mice, survival T/C
# Test: NCI In Vivo Anticancer Drug Screen. Data for tumor model P1534 Leukemia (intraperitoneal) in CD2F1 (CDF1) mice
# Settings: endpoint: mean survival time, higher = longer survival
# Procedure: The antitumor activity of compounds was measured in mice bearing transplantable tumors. Survival or tumor size were measured and the results are expressed as the measurement made in the treated group (T) divided by the measurement made in the vehicle treated control group (C). The tumor model used in this assay is P1534 Leukemia (intraperitoneal) in CD2F1 (CDF1) mice
# [1] = dose: 8.0 mg/kg/injection, schedule: Q01DX010 (ip), vehicle: saline
# [2] = dose: 32.0 mg/kg/injection, schedule: Q01DX010 (ip), vehicle: saline
# [3] = dose: 64.0 mg/kg/injection, schedule: Q01DX010 (ip), vehicle: saline
# [4] = dose: 50.0 mg/kg/injection, schedule: Q01DX010 (ip), vehicle: saline
# [5] = dose: 100.0 mg/kg/injection, schedule: Q01DX010 (ip), vehicle: saline
# [6] = dose: 200.0 mg/kg/injection, schedule: Q01DX010 (ip), vehicle: saline
# [7] = dose: 20.0 mg/kg/injection, schedule: Q01DX010 (ip), vehicle: saline
# [8] = dose: 7.5 mg/kg/injection, schedule: Q01DX010 (ip), vehicle: saline
# [9] = dose: 15.0 mg/kg/injection, schedule: Q01DX010 (ip), vehicle: saline
# [10] = dose: 30.0 mg/kg/injection, schedule: Q01DX010 (ip), vehicle: saline
# [11] = dose: 60.0 mg/kg/injection, schedule: Q01DX010 (ip), vehicle: saline
# [12] = dose: 25.0 mg/kg/injection, schedule: Q01DX010 (ip), vehicle: saline
# [13] = dose: 12.5 mg/kg/injection, schedule: Q01DX010 (ip), vehicle: saline
structure (smiles),measurement,setting,value
O=C(Nc1ccc(C2=NCCN2)cc1)c1cccc(C(=O)Nc2ccc(C3=NCCN3)cc2)c1,T/C,[1],109 % of control
same,T/C,"dose: 16.0 mg/kg/injection, schedule: Q01DX010 (ip), vehicle: saline",118 % of control
same,T/C,[2],154 % of control
same,T/C,[3],163 % of control and 168 % of control
C[C@]12CCC(=O)C[C@H]1CC[C@@H]1[C@@H]2CC[C@@]2(C)[C@H]1CC[C@]2(C)O,T/C,"dose: 50.0 mg/kg/injection, schedule: Q01DX010 (sc), vehicle: steriod suspending solution",100 % of control
same,T/C,"dose: 100.0 mg/kg/injection, schedule: Q01DX010 (sc), vehicle: steriod suspending solution",100 % of control
same,T/C,"dose: 200.0 mg/kg/injection, schedule: Q01DX010 (sc), vehicle: steriod suspending solution",96 % of control
same,T/C,"dose: 400.0 mg/kg/injection, schedule: Q01DX010 (sc), vehicle: steriod suspending solution",96 % of control
CC(=O)NCCCCCCCCCCNC(C)=O,T/C,[4],100 % of control
same,T/C,[5],100 % of control
same,T/C,[6],92 % of control
same,T/C,"dose: 400.0 mg/kg/injection, schedule: Q01DX010 (ip), vehicle: saline",96 % of control
OCC1OC(n2cnc3c(=S)nc[nH]c32)C(O)C1O (configuration not stated),T/C,[7],111 % of control
same,T/C,"dose: 40.0 mg/kg/injection, schedule: Q01DX010 (ip), vehicle: saline",111 % of control and 122 % of control
Clc1ncnc2nc[nH]c12,T/C,[8],106 % of control and 100 % of control
same,T/C,[9],94 % of control
same,T/C,[10],105 % of control
same,T/C,[11],105 % of control
Cc1cc(C)n(C(N)=O)n1,T/C,"dose: 150.0 mg/kg/injection, schedule: Q01DX010 (ip), vehicle: water",96 % of control
same,T/C,"dose: 200.0 mg/kg/injection, schedule: Q01DX010 (ip), vehicle: water",111 % of control
Clc1[nH]nc2ccccc12,T/C,"dose: 7.8 mg/kg/injection, schedule: Q01DX010 (ip), vehicle: saline",100 % of control
same,T/C,"dose: 15.6 mg/kg/injection, schedule: Q01DX010 (ip), vehicle: saline",96 % of control
same,T/C,"dose: 31.3 mg/kg/injection, schedule: Q01DX010 (ip), vehicle: saline",96 % of control
same,T/C,"dose: 62.5 mg/kg/injection, schedule: Q01DX010 (ip), vehicle: saline",107 % of control and 100 % of control
same,T/C,"dose: 125.0 mg/kg/injection, schedule: Q01DX010 (ip), vehicle: saline",92 % of control
COc1ccc(/C=N/NC(N)=S)cc1,T/C,[2],100 % of control
same,T/C,[3],100 % of control
same,T/C,"dose: 128.0 mg/kg/injection, schedule: Q01DX010 (ip), vehicle: saline",100 % of control
same,T/C,"dose: 256.0 mg/kg/injection, schedule: Q01DX010 (ip), vehicle: saline",106 % of control
CC[C@H](CC[C@@H](C)[C@H]1CC[C@H]2[C@@H]3CC=C4C[C@@H](O)CC[C@]4(C)[C@H]3CC[C@]12C)C(C)C,T/C,"dose: 50.0 mg/kg/injection, schedule: Q01DX010 (ip), vehicle: other",100 % of control
same,T/C,"dose: 100.0 mg/kg/injection, schedule: Q01DX010 (ip), vehicle: other",100 % of control
same,T/C,"dose: 200.0 mg/kg/injection, schedule: Q01DX010 (ip), vehicle: other",106 % of control
same,T/C,"dose: 300.0 mg/kg/injection, schedule: Q01DX010 (ip), vehicle: other",108 % of control
C[N+](C)(C)c1ncnc2nc[nH]c12,T/C,[9],107 % of control
same,T/C,[10],110 % of control
same,T/C,[11],114 % of control
O=C(CNC(=O)OCc1ccccc1)NCCCCCCNCCCCCCNC(=O)CNC(=O)OCc1ccccc1,T/C,[12],100 % of control
same,T/C,[4],107 % of control
same,T/C,[5],103 % of control
same,T/C,[6],100 % of control
CCC12CCCN3CCc4c(n(c5ccccc45)C(O)(C(=O)OC)C1)C32 (configuration not stated),T/C,"dose: 1.88 mg/kg/injection, schedule: Q01DX010 (ip), vehicle: saline",90 % of control
same,T/C,"dose: 3.75 mg/kg/injection, schedule: Q01DX010 (ip), vehicle: saline",93 % of control
same,T/C,[8],96 % of control
CN(C)c1ccc(Nc2c3ccccc3nc3ccccc23)cc1,T/C,"dose: 36.0 mg/kg/injection, schedule: Q01DX010 (ip), vehicle: saline",121 % of control
same,T/C,"dose: 80.0 mg/kg/injection, schedule: Q01DX010 (ip), vehicle: saline",92 % of control
CCCCOP(=S)(N1CC1)N1CC1,T/C,"dose: 4.0 mg/kg/injection, schedule: Q01DX010 (ip), vehicle: saline",115 % of control
same,T/C,[1],123 % of control
CS(=O)(=O)OCCCCOS(C)(=O)=O,T/C,"dose: 6.25 mg/kg/injection, schedule: Q01DX010 (ip), vehicle: saline",106 % of control and 88 % of control
same,T/C,[13],88 % of control and 100 % of control
same,T/C,[12],112 % of control and 88 % of control
same,T/C,[4],112 % of control and 100 % of control
CC(C)=CCN=C(N)N,T/C,[13],103 % of control
same,T/C,[12],106 % of control
COC(=O)C1C(O)CCC2CN3CCc4c([nH]c5ccccc45)C3CC21 (configuration not stated),T/C,"dose: 2.5 mg/kg/injection, schedule: Q01DX010 (ip), vehicle: saline",100 % of control
same,T/C,"dose: 5.0 mg/kg/injection, schedule: Q01DX010 (ip), vehicle: saline",100 % of control
same,T/C,"dose: 10.0 mg/kg/injection, schedule: Q01DX010 (ip), vehicle: saline",100 % of control
same,T/C,[7],96 % of control
